Assay results as given in PubChem BioAssay AID2060619 (Molecular Pharmacology Branch, DTP, NCI, 2025).

Test system: 323965-272-R-J2-PDC complex spheroid viability
Experiment: Anticancer human tumor 323965-272-R-J2-PDC patient-derived pancreatic carcinoma cell line growth inhibition [CLK]
Settings: for IC50: curve of first compound; for viability, T/C: stronger effect = lower value; active = viability on the fitted dose curve at most 10% of control; inactive = the rest
Procedure, shortened: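 Multi-cell-type spheroids combined patient-derived tumor cells with HUVEC endothelial cells and human mesenchymal stem cells. Paired agents were dosed in half-log steps down from about clinical Cmax, or from 10 microM where Cmax was unknown.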

[1] = second compound 0.0316 µM, first compound 0.0316 µM
[2] = second compound 0.0316 µM, first compound 0.1 µM
[3] = second compound 0.0316 µM, first compound 0.316 µM
[4] = second compound 0.0316 µM, first compound 1 µM
[5] = second compound 0.0316 µM, first compound 3.16 µM
[6] = second compound 0.0316 µM, first compound 10 µM
[7] = second compound 0.1 µM, first compound 0.0316 µM
[8] = second compound 0.1 µM, first compound 0.1 µM
[9] = second compound 0.1 µM, first compound 0.316 µM
[10] = second compound 0.1 µM, first compound 1 µM
[11] = second compound 0.1 µM, first compound 3.16 µM
[12] = second compound 0.1 µM, first compound 10 µM
[13] = second compound 0.316 µM, first compound 0.0316 µM
[14] = second compound 0.316 µM, first compound 0.1 µM
[15] = second compound 0.316 µM, first compound 0.316 µM
[16] = second compound 0.316 µM, first compound 1 µM
[17] = second compound 0.316 µM, first compound 3.16 µM
[18] = second compound 0.316 µM, first compound 10 µM
[19] = second compound 1 µM, first compound 0.0316 µM
[20] = second compound 1 µM, first compound 0.1 µM
[21] = second compound 1 µM, first compound 0.316 µM
[22] = second compound 1 µM, first compound 1 µM
[23] = second compound 1 µM, first compound 3.16 µM
[24] = second compound 1 µM, first compound 10 µM
[25] = second compound 3.16 µM, first compound 0.0316 µM
[26] = second compound 3.16 µM, first compound 0.1 µM
[27] = second compound 3.16 µM, first compound 0.316 µM
[28] = second compound 3.16 µM, first compound 1 µM
[29] = second compound 3.16 µM, first compound 3.16 µM
[30] = second compound 3.16 µM, first compound 10 µM
[31] = second compound 10 µM, first compound 0.0316 µM
[32] = second compound 10 µM, first compound 0.1 µM
[33] = second compound 10 µM, first compound 0.316 µM
[34] = second compound 10 µM, first compound 1 µM
[35] = second compound 10 µM, first compound 3.16 µM
[36] = second compound 10 µM, first compound 10 µM
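Note: spheroids exposed to agents for seven days before readout.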
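Throughout, for viability, T/C: percent of DMSO vehicle control wells so 100% = untreated growth.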

Nc1ccn(C2OC(CO)C(O)C2(F)F)c(=O)n1 (stereo unspecified) + CN1CCN(c2cc(C(=O)Nc3cc4cc(-c5cnn(C)c5)ccc4cn3)ccn2)CC1
< 31.6 nM: IC50 (second compound 0.0316 µM) | IC50 (second compound 0.1 µM) | IC50 (second compound 0.316 µM) | IC50 (second compound 1 µM) | IC50 (second compound 3.16 µM) | IC50 (second compound 10 µM)
inactive: viability, T/C [1] 35.2% | viability, T/C [2] 30.6% | viability, T/C [3] 33.9% | viability, T/C [4] 36.6% | viability, T/C [5] 25.3% | viability, T/C [6] 24.8% | viability, T/C [7] 31.1% | viability, T/C [8] 29.9% | viability, T/C [9] 28.6% | viability, T/C [10] 23% | viability, T/C [11] 20.9% | viability, T/C [12] 19.5% | viability, T/C [13] 18.4% | viability, T/C [14] 20.2% | viability, T/C [15] 16.6% | viability, T/C [16] 19.8% | viability, T/C [17] 15.2% | viability, T/C [18] 13.6%
active: viability, T/C [19] 2.74% | viability, T/C [20] 3.71% | viability, T/C [21] 5.04% | viability, T/C [22] 3.41% | viability, T/C [23] 3.52% | viability, T/C [24] 1.82% | viability, T/C [25] 3.79% | viability, T/C [26] 4.62% | viability, T/C [27] 5.76% | viability, T/C [28] 4.04% | viability, T/C [29] 4.01% | viability, T/C [30] 6.04% | viability, T/C [31] 3.95% | viability, T/C [32] 5.3% | viability, T/C [33] 4.73% | viability, T/C [34] 4.61% | viability, T/C [35] 5.93% | viability, T/C [36] 4.49%

O=C(c1cc(Cc2n[nH]c(=O)c3ccccc23)ccc1F)N1CCN(C(=O)C2CC2)CC1 + CN1CCN(c2cc(C(=O)Nc3cc4cc(-c5cnn(C)c5)ccc4cn3)ccn2)CC1
< 31.6 nM: IC50 (second compound 0.316 µM) | IC50 (second compound 1 µM) | IC50 (second compound 3.16 µM) | IC50 (second compound 10 µM)
inactive: viability, T/C [1] 91.1% | viability, T/C [2] 93.4% | viability, T/C [3] 87.4% | viability, T/C [4] 102% | viability, T/C [5] 93.5% | viability, T/C [6] 80.2% | viability, T/C [7] 70.6% | viability, T/C [8] 81.2% | viability, T/C [9] 68.7% | viability, T/C [10] 64.8% | viability, T/C [11] 65.6% | viability, T/C [12] 56.2% | viability, T/C [13] 23.2% | viability, T/C [14] 26.9% | viability, T/C [15] 22.6% | viability, T/C [16] 26.6% | viability, T/C [17] 24.9% | viability, T/C [18] 26.9%
> 10000 nM: IC50 (second compound 0.0316 µM) | IC50 (second compound 0.1 µM)
active: viability, T/C [19] 4.07% | viability, T/C [20] 7.03% | viability, T/C [21] 3.28% | viability, T/C [22] 3.68% | viability, T/C [23] 3.67% | viability, T/C [24] 3.82% | viability, T/C [25] 5.15% | viability, T/C [26] 4.92% | viability, T/C [27] 4.78% | viability, T/C [28] 4.57% | viability, T/C [29] 5.09% | viability, T/C [30] 7.05% | viability, T/C [31] 4.14% | viability, T/C [32] 5.28% | viability, T/C [33] 5.97% | viability, T/C [34] 4.83% | viability, T/C [35] 4.72% | viability, T/C [36] 6.29%

O=c1[nH]cc(F)c(=O)[nH]1 + CN1CCN(c2cc(C(=O)Nc3cc4cc(-c5cnn(C)c5)ccc4cn3)ccn2)CC1
active: viability, T/C [19] 3.34% | viability, T/C [20] 2.81% | viability, T/C [21] 3.78% | viability, T/C [22] 3.65% | viability, T/C [23] 4.75% | viability, T/C [24] 3.29% | viability, T/C [25] 4.71% | viability, T/C [26] 4.34% | viability, T/C [27] 4.13% | viability, T/C [28] 4.08% | viability, T/C [29] 6.26% | viability, T/C [30] 5.19% | viability, T/C [31] 3.98% | viability, T/C [32] 3.73% | viability, T/C [33] 3.94% | viability, T/C [34] 4.27% | viability, T/C [35] 7.34% | viability, T/C [36] 3.84%
inactive: viability, T/C [1] 99.5% | viability, T/C [2] 96.8% | viability, T/C [3] 99.3% | viability, T/C [4] 85.8% | viability, T/C [5] 63% | viability, T/C [6] 45.4% | viability, T/C [7] 62.8% | viability, T/C [8] 85.4% | viability, T/C [9] 73.5% | viability, T/C [10] 67.4% | viability, T/C [11] 50.2% | viability, T/C [12] 36.7% | viability, T/C [13] 26.1% | viability, T/C [14] 27% | viability, T/C [15] 26.6% | viability, T/C [16] 25.2% | viability, T/C [17] 24.5% | viability, T/C [18] 22.6%
3150 nM: IC50 (second compound 0.1 µM)
7400 nM: IC50 (second compound 0.0316 µM)
< 31.6 nM: IC50 (second compound 0.316 µM) | IC50 (second compound 1 µM) | IC50 (second compound 3.16 µM) | IC50 (second compound 10 µM)
